Measured values reported in patent US12364733B1, “Method for treating septic shock” (Inotrem, priority 2018, dated 2025).

Tests used:
Format in all cases: in vivo, human
[1] = test system: septic shock patients; assay: Phase IIa clinical trial with nangibotide: days alive and free from vasopressor, IMV or CRRT; conditions: for difference in the number of CRRT (continuous renal replacement therapy) free days alive vs. placebo / difference in the number of IMV (invasive mechanical ventilation) free days alive vs. placebo / difference in the number of vasopressor free days alive vs. placebo: day 0 to day 28
Protocol: This was a randomized, double-blind, two-stage, placebo-controlled study. As described in FIG. 7, the study was composed of 2 stages with a similar treatment regimen, in which 0.3, 1.0 or 3.0 mg/kg/h of nangibotide (corresponding to peptide LR12, having an amino acid sequence as set forth in SEQ ID NO: 9, also known as motrem) was tested versus placebo. All patients with a diagnosis of septic shock were considered for study participation. All potential study patients underwent standard care management procedures. Patients with evidence of septic shock according to the Sepsis-3 definition (Singer et al, JAMA 2016) were considered for inclusion (i.e., patients suffering from sepsis and having (i) persisting hypotension requiring vasopressors to maintain their mean arterial pressure ≥65 mm Hg and (ii) a serum lactate level >2 mmol/L (18 mg/dL) despite adequate volume resuscitation).
After screening for eligibility, patients were randomized to one of the treatment arms. Then, they received either a 5 mg/kg loading dose of nangibotide over 15 minutes followed by a continuous intravenous (i.v.) infusion of nangibotide or a matching placebo on top of standard of care. Treatment with study drug was initiated as early as possible, but no later than 24 hours after the onset of septic shock, defined by the start of vasopressor therapy. Patients were treated until 12 (±2) hours after the resolution of their septic shock (defined as vasopressor withdrawal) with a maximum treatment duration of 5 days (120 hours).
(§1) Adverse events (AEs) were coded using the MedDRA dictionary version 18.1. Treatment-emergent adverse events (TEAEs) were summarized and listed. Analysis was performed in 49 septic shock patients. The demographic and baseline characteristics were summarized in a descriptive fashion within each population: categorical variables were summarized by contingency tables (frequencies and percentages). sTREM-1 levels at day 1 were also described (mean, standard deviation, standard error, median, quartiles and range, minimum and maximum values). Mortality rates were reported by frequency and percentage. For continuous endpoints, i.e., the sequential organ failure assessment (SOFA), missing data were imputed using LOCF (Last Observation Carry-Forward). For time-to-event analyses, i.e., duration of invasive mechanical ventilation (IMV), duration of continuous renal replacement therapy (CRRT), survival, censored data techniques were utilized. In addition, a sensitivity analysis of time to event data (except survival) was performed using censoring at maximum limit for the corresponding observation period (i.e., either day 28 or day 90). […] The following comparisons were made: each nangibotide dose arm to placebo, all nangibotide doses combined versus placebo, and dose-response using an ordinal trend test. Exploratory composite endpoint: incidence (number and proportion) of patients alive at day 28 and free of vasopressor, free of IMV and free of CRRT were summarized by treatment and compared between treatments with a Fisher's exact test. For pharmacodynamic markers, log transformed data were represented as percentage change from baseline at day 5 or End of Infusion (EOI) if end of infusion was stopped before day 5. […] “All nangibotide” refers to analyses obtained by pooling data from 0.3, 1 and 3 mg/kg/h nangibotide-treated groups.

[2] = test system: circulating levels of endothelial injury markers, inflammatory markers and sTREM-1; assay: Phase IIa clinical trial with nangibotide: pharmacodynamic markers
Protocol: The quantitative determination of sTREM-1 was carried out using the method described in Example 2.
as §1

[3] = test system: anti-nangibotide antibodies; assay: Immunogenicity: anti-nangibotide antibodies in serum by indirect ELISA; conditions: baseline, day 8 and day 28
Protocol: Anti-nangibotide antibodies in serum were evaluated at baseline, day 8 and day 28, by an indirect ELISA method validated according to methods described by Shankar et al. (J Pharm Biomed Anal. 2008 Dec. 15; 48(5):1267-81) and EMA guidance on immunogenicity assessment of biotechnology-derived therapeutic proteins (EMEA/CHMP/BMWP/14327/2006 issued on April 2008). Screening samples determined as positive were further assessed using the confirmatory assay where the cut point was established to have 0.1% of false positive samples (Shankar et al., J Pharm Biomed Anal. 2008 Dec. 15; 48(5):1267-81). […] The sensitivity of the assay was established to be 0.3125 pg/mL.

[4] = baseline high sTREM-1 subgroup, 0.3 mg/kg/h
[5] = baseline high sTREM-1 subgroup, 3 mg/kg/h
[6] = baseline high sTREM-1 subgroup, all nangibotide
[7] = baseline low sTREM-1 subgroup, 0.3 mg/kg/h
[8] = baseline low sTREM-1 subgroup, 3 mg/kg/h
[9] = baseline low sTREM-1 subgroup, all nangibotide
[10] = whole population, all nangibotide

## nangibotide (LQEEDAGEYGCM; TLT-1 peptide)
[1]; all nangibotide group, patients with high circulating sTREM-1 at baseline (above 433 pg/mL), placebo 40%
  proportion of patients alive and free of any medical support at day 28: 70%
[1]; [4]
  difference in the number of CRRT (continuous renal replacement therapy) free days alive vs. placebo: 8.67 days
  difference in the number of IMV (invasive mechanical ventilation) free days alive vs. placebo: 2.63 days
  difference in the number of vasopressor free days alive vs. placebo: 4.07 days
[1]; [5]
  difference in the number of CRRT (continuous renal replacement therapy) free days alive vs. placebo: 7.37 days
  difference in the number of IMV (invasive mechanical ventilation) free days alive vs. placebo: 4.30 days
  difference in the number of vasopressor free days alive vs. placebo: -0.48 days
[1]; [6]
  difference in the number of CRRT (continuous renal replacement therapy) free days alive vs. placebo: 7.85 days
  difference in the number of IMV (invasive mechanical ventilation) free days alive vs. placebo: 5.63 days
  difference in the number of vasopressor free days alive vs. placebo: 2.94 days
[1]; [7]
  difference in the number of CRRT (continuous renal replacement therapy) free days alive vs. placebo: 1.43 days
  difference in the number of IMV (invasive mechanical ventilation) free days alive vs. placebo: 3 days
  difference in the number of vasopressor free days alive vs. placebo: 2.29 days
[1]; [8]
  difference in the number of CRRT (continuous renal replacement therapy) free days alive vs. placebo: 0.89 days
  difference in the number of IMV (invasive mechanical ventilation) free days alive vs. placebo: -6.32 days
  difference in the number of vasopressor free days alive vs. placebo: 0.07 days
[1]; [9]
  difference in the number of CRRT (continuous renal replacement therapy) free days alive vs. placebo: 0.77 days
  difference in the number of IMV (invasive mechanical ventilation) free days alive vs. placebo: -1.30 days
  difference in the number of vasopressor free days alive vs. placebo: 0.64 days
[1]; no statistically significant differences
  vasopressor use, invasive mechanical ventilation (IMV) use and renal replacement therapy (RRT) use vs. placebo: consistent numerical trend in favor of nangibotide
[1]; whole population, 0.3 mg/kg/h
  difference in the number of CRRT (continuous renal replacement therapy) free days alive vs. placebo: 4.10 days
  difference in the number of IMV (invasive mechanical ventilation) free days alive vs. placebo: 2.32 days
[1]; whole population, 3 mg/kg/h
  difference in the number of CRRT (continuous renal replacement therapy) free days alive vs. placebo: 1.50 days
  difference in the number of IMV (invasive mechanical ventilation) free days alive vs. placebo: -2.08 days
[1]; [10]
  difference in the number of CRRT (continuous renal replacement therapy) free days alive vs. placebo: 2.70 days
  difference in the number of IMV (invasive mechanical ventilation) free days alive vs. placebo: 1.33 days
[2]; G2 subgroup (baseline sTREM-1 above the median 433 pg/mL) vs whole population and G1
  Ang-2 level, change from baseline: trend toward a more pronounced decrease
[2]; G2 subgroup vs whole population and G1
  IL-6 level, change from baseline: the same trend was observed
[2]; during the treatment, nangibotide-treated patients
  circulating levels of endothelial injury markers (Ang-2, VCAM-1, VGEFR-1 and E-selectin), inflammatory markers (IL-8, IL-10, MCP-1, TNF-α and IL-10) and sTREM-1: trend towards a decrease
[2]; subgroup of patients with high baseline sTREM-1 values
  sTREM-1 kinetics over time: trend towards a decrease in sTREM-1
[2]; whole population
  Ang-2 level, treatment effect: no apparent treatment effect
[2]; whole population, day 5/EOI from baseline
  sTREM-1 kinetics over time: no apparent changes over time
[3]
  anti-nangibotide antibodies in serum: No anti-nangibotide antibodies were found
